This is an account of results in ChEMBL document CHEMBL1137733, “Studies on the interaction of caffeine with bovine hemoglobin” (Eur J Med Chem, 2009).

The data set deals with albumin (Homo sapiens, UniProt P02768). As to the kind of experiment: Binding affinity to human plasma albumin by ultracentrifugation. The data set is classed as cell-free. The note with it: read-out: PB (converted).
Sequence of albumin (P02768 whole entry): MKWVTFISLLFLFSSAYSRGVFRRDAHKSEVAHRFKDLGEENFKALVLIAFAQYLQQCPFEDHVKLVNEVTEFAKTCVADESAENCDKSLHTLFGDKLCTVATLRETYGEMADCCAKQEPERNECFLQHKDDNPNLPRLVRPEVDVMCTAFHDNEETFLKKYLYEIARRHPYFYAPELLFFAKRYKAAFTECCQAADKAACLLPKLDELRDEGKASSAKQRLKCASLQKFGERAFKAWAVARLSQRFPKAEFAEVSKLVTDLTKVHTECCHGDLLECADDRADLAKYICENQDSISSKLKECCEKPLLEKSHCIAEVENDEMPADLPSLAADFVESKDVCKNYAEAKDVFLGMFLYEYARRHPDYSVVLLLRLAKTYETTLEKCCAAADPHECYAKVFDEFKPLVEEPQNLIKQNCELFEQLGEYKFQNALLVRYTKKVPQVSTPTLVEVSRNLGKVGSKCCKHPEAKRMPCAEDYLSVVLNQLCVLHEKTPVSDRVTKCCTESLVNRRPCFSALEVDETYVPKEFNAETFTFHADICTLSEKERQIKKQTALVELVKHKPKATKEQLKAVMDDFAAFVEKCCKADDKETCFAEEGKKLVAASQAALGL

Consider `Cn1c(=O)c2c(ncn2C)n(C)c1=O` [CAFFEINE], for which the fraction unbound is 0.622.
